Source: PubChem BioAssay (NCI)
Values joined by “and” are separate entries in the source; they are usually repeats but may differ in a detail not shown here. Equal values may be shown once.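 Test compounds were applied to cells in 96-well plates for 48 hours at 5 doses. At the GI50, growth is halved. The concentration for full growth arrest is given as TGI.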

Assays:
Test in all cases: NCI-60 cell line screen, 48 h
[1] = system: CAKI-1 renal
[2] = system: IGROV1 ovarian
[3] = system: MOLT-4 leukemia
[4] = system: NCI-H460 lung
[5] = system: SF-539 CNS
[6] = system: SR leukemia
[7] = system: SW-620 colon
[8] = system: U251 CNS
[9] = system: UACC-257 melanoma
[10] = system: UO-31 renal

SMILES	TGI [1]	TGI [2]	TGI [3]	TGI [4]	TGI [5]	TGI [6]	TGI [7]	TGI [8]	TGI [9]	TGI [10]	GI50 [1]	GI50 [2]	GI50 [3]	GI50 [4]	GI50 [5]	GI50 [6]	GI50 [7]	GI50 [8]	GI50 [9]	GI50 [10]
S=c1[nH]c(=S)c2nnn(-c3ccccc3)c2[nH]1	> 100 µM	> 100 µM	> 100 µM	> 100 µM	> 100 µM	> 100 µM	> 100 µM	> 100 µM	> 100 µM	> 100 µM										
COc1ccc(O)c(C(=O)c2ccc(C(=O)N[C@H]3CCCNC[C@@H]3NC(=O)c3ccncc3)cc2)c1F	> 25 µM	> 25 µM	11.6 µM	> 25 µM	7.68 µM	12.7 µM	> 25 µM	> 25 µM	> 25 µM	> 25 µM	> 25 µM	3.74 µM	1.38 µM	10.5 µM	0.624 µM	0.63 µM	> 25 µM	8.12 µM	> 25 µM	> 18.9 µM
Cc1cc(C)c(/C=C2\C(=O)Nc3ccc(NC(=O)CCCCCCC(=O)NO)cc32)[nH]1	> 100 µM	> 100 µM	35.3 µM	> 100 µM	> 100 µM	> 100 µM	36.2 µM	10.4 µM	> 100 µM	> 100 µM	> 100 µM	2.86 µM	0.43 µM	> 50.6 µM	0.521 µM	0.416 µM	0.317 µM	0.529 µM	0.418 µM	> 100 µM
CC[C@H]1CN2CCc3cc(OC)c(OC)cc3[C@@H]2C[C@@H]1C[C@H]1NCCc2c1[nH]c1ccc(O)cc21	0.614 µM and 0.68 µM	0.0806 µM and 0.159 µM and 0.196 µM		0.0912 µM and 0.395 µM and 0.0422 µM	0.0476 µM and 0.0513 µM and 0.0408 µM			0.0702 µM and 0.075 µM and 0.154 µM	0.666 µM and 0.69 µM and 0.643 µM	0.772 µM and 4.5 µM and 1.9 µM		0.0267 µM and 0.0328 µM	0.0117 µM and 0.0272 µM	0.0252 µM and 0.0398 µM	0.0211 µM and 0.0232 µM	0.0152 µM and 0.0333 µM	0.0286 µM and 0.0339 µM	0.0222 µM and 0.0255 µM	0.223 µM and 0.212 µM	0.251 µM and 1.2 µM
c1ccc2c(c1)c1c(c3ccccc32)CN2CCCC2C1 (configuration not stated)	> 100 µM	12 µM	> 100 µM	> 100 µM	10.7 µM	> 100 µM	16.7 µM	23.1 µM	20.3 µM	11.8 µM										
COc1cc2c(OC)cc1CSCc1sc(C)c(c1Br)CSC2	> 100 µM	> 100 µM	> 100 µM	> 100 µM	> 100 µM	> 100 µM	> 100 µM	> 100 µM	> 100 µM	> 100 µM										
O=C1NC(=O)/C(=C\c2ccccc2)C2=C1CCCC2	17.3 µM	32.4 µM	7.73 µM	36 µM	24.1 µM	5.77 µM	6.94 µM	16.2 µM	22.5 µM	21.8 µM	5.63 µM	13 µM	2.77 µM	16.3 µM	11.6 µM	2.35 µM	2.37 µM	4.82 µM	8.11 µM	7.43 µM
O=S(=O)(Nc1ccc(F)cc1F)c1ccc(-c2cnc(C3CC3)o2)cc1	> 65.3 µM	67.2 µM	> 70.1 µM	28.2 µM	5.71 µM	> 100 µM	> 100 µM	26.8 µM	51.8 µM	34.2 µM	0.562 µM	0.535 µM	0.652 µM	0.404 µM	0.674 µM	0.406 µM	0.395 µM	0.552 µM	10.3 µM	1.07 µM
Cc1cc(C)c(NC(=O)c2sc3nc4c(cc3c2N)CN(Cc2ccccc2)CC4)c(C)c1	> 100 µM	> 100 µM	> 100 µM	16.3 µM	7.79 µM	10.7 µM	17.1 µM	24.2 µM	> 100 µM	93.9 µM	2.81 µM	6.54 µM	4.15 µM	3.29 µM	2.44 µM	1.83 µM	2.6 µM	4.35 µM	6.71 µM	4.78 µM
OCCCNc1nccc(-c2c(-c3ccc(F)cc3)nn3cc(C(F)(F)F)ccc23)n1	> 25 µM	> 25 µM	> 25 µM	> 25 µM	> 25 µM	> 25 µM	> 25 µM	> 25 µM	> 25 µM	> 25 µM	> 21.7 µM	12 µM	14.3 µM	9.12 µM	> 25 µM	> 25 µM	> 25 µM	19.3 µM	> 23.4 µM	7.07 µM
Cc1cc(S(=O)(=O)O)c(NC(=O)C(=O)Cc2cc(=O)oc3cc(O)ccc23)cc1Cl	> 100 µM	> 100 µM	> 100 µM	> 100 µM	> 100 µM	> 100 µM	> 100 µM	> 100 µM	> 100 µM	> 100 µM										
CCOC(=O)c1c(NC(=O)c2cccc(C(F)(F)F)c2)sc2c(CN(C)C)c(O)ccc12	5.07 µM	28.8 µM	38.8 µM	4.76 µM	12.4 µM	6.92 µM	5.53 µM	5.45 µM	3.31 µM	14.4 µM	2.16 µM	12.2 µM	3.77 µM	2.19 µM	3.41 µM	3.16 µM	2.31 µM	2.21 µM	1.76 µM	3.34 µM
C=C1C(=O)O[C@H]2[C@H]1CC/C(COC(=O)/C=C\C(=O)NCc1ccc(Cn3c(=O)sn(CCCC)c3=O)cc1)=C\CC[C@@]1(C)O[C@@H]21	1.48 µM	1.73 µM	1.52 µM	2.73 µM	2.42 µM	> 100 µM	0.443 µM	3.2 µM	2.93 µM	1.61 µM	0.328 µM	0.556 µM	0.34 µM	1.27 µM	1.18 µM	0.288 µM	0.201 µM	1.43 µM	1.38 µM	0.387 µM
Cc1[nH]c(/C=C2\C(=O)Nc3ccccc32)c(C)c1CCC(=O)O	68.1 µM and > 100 µM	> 100 µM	69.4 µM and 84.4 µM	57 µM and > 100 µM	42.2 µM	48.7 µM and 57.9 µM	52.8 µM and 71.1 µM	> 100 µM	63 µM and 81.1 µM	43.6 µM and > 100 µM	15.9 µM		26.5 µM	21.3 µM	12.3 µM	19.7 µM	18.8 µM	38.1 µM	20.4 µM	11.6 µM
COC(=O)/C=C/c1c(CC=C(C)C)ncn1C	> 100 µM	> 100 µM	> 100 µM	> 100 µM	62.2 µM	> 100 µM	> 100 µM	> 67.1 µM	> 100 µM	> 92.7 µM										
NC(=O)OCCn1cc(-c2nc(-c3c[nH]c4ncccc34)cs2)c2ccccc21	8.54 µM	1.95 µM	8.61 µM	12.5 µM	4.5 µM	7.05 µM	4.53 µM	5.08 µM	7.88 µM	4.65 µM	2.42 µM	0.138 µM	2.19 µM	2.46 µM	1.61 µM	1.08 µM	1.3 µM	1.91 µM	2.08 µM	0.621 µM
CCCO/S(=N\S(=O)(=O)c1ccccc1)c1ccccc1[N+](=O)[O-] (configuration not stated)	> 100 µM	> 100 µM	> 100 µM	> 100 µM	> 100 µM	> 100 µM	> 100 µM	> 100 µM	> 100 µM	> 100 µM										
COc1cc(OC)c(/C=C/c2c3ccccc3cc[n+]2C)c(OC)c1	> 100 µM	19.8 µM	32.8 µM	8.83 µM	9.17 µM	41.2 µM	14.2 µM	14.1 µM	6.01 µM	> 100 µM	18.6 µM	2.32 µM	3.1 µM	1.82 µM	2.1 µM	2 µM	2.12 µM	1.1 µM	0.674 µM	18.5 µM
CC(=O)Oc1ccccc1C(=O)Nc1ncc([N+](=O)[O-])s1	> 100 µM	20.8 µM and > 100 µM		12.2 µM and > 100 µM	20.6 µM and > 100 µM	7.99 µM	> 100 µM	20.7 µM and > 100 µM			2.64 µM	2.85 µM	2.64 µM	2.76 µM	2.9 µM	2.32 µM	2.76 µM	1.38 µM	2.16 µM	2.16 µM
O[C@H](c1cc(C(F)(F)F)nc2c(C(F)(F)F)cccc12)[C@@H]1CCCCN1	7.29 µM	4.14 µM	11.1 µM	5.28 µM	15 µM	9.5 µM	4.52 µM	8.38 µM	9.11 µM	9.48 µM	1.96 µM	1.17 µM	3.51 µM	2.28 µM	6.43 µM	2.32 µM	2.05 µM	3.05 µM	3.84 µM	1.88 µM
NC(=O)c1cc(S(=O)(=O)Nc2nnc(-c3ccccc3)c(-c3ccccc3)n2)c(SCc2ccccc2)cc1Cl	> 100 µM	> 94.3 µM	> 70.1 µM	> 83.1 µM	> 63.9 µM	> 70.9 µM	> 100 µM	> 100 µM	> 89.9 µM	> 100 µM	> 100 µM	> 54.7 µM	38.2 µM	> 46.2 µM	> 44.3 µM	42.2 µM	> 56.1 µM	> 55.6 µM	> 48.2 µM	> 100 µM
